From patent US20160159816A1, “SUBSTITUTED THIENOPYRIMIDINES AND PHARMACEUTICAL USE THEREOF” (BAYER PHARMA AKTIENGESELLSCHAFT, priority 2013, published 2016) come the findings set out here.

The test deals with T1, human full-length MKNK1 (Homo sapiens, UniProt Q9BUB5, T385D).
T1 construct: GST (N); purchased Carna Biosciences 02-145; host or cells: insect cells, baculovirus expression system
T1 sequence (Q9BUB5 1-424 isoform Q9BUB5-2 T344D): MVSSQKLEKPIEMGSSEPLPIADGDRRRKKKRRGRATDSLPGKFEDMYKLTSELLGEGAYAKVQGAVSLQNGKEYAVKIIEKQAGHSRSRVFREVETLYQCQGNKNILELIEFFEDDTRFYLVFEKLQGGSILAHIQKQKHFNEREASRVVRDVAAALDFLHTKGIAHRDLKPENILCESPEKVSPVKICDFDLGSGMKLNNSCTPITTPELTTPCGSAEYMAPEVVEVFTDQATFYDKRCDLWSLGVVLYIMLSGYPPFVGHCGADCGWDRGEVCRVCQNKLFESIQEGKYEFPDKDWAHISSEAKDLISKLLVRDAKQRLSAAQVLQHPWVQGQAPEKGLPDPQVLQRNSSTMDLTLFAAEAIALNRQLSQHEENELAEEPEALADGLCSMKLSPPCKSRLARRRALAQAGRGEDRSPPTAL
Nature of the test: MKNK1 kinase high ATP assay (TR-FRET). Type of test: biochemical. Conditions: high ATP (2 mM), after preincubation with MKNK1; compounds of the present invention (Table 1a). As to the method: MKNK1-inhibitory activity at high ATP of compounds of the present invention after their preincubation with MKNK1 was quantified employing the TR-FRET-based MKNK1 high ATP assay as described in the following paragraphs.
A recombinant fusion protein of Glutathione-S-Transferase (GST, N-terminally) and human full-length MKNK1 (amino acids 1-424 and T344D of accession number BAA 19885.1), expressed in insect cells using baculovirus expression system and purified via glutathione sepharose affinity chromatography, was purchased from Carna Biosciences (product no 02-145) and used as enzyme. As substrate for the kinase reaction the biotinylated peptide biotin-Ahx-IKKRKLTRRKSLKG (C-terminus in amide form) was used, which can be purchased e.g. from the company Biosyntan (Berlin-Buch, Germany).
For the assay 50 nL of a 100 fold concentrated solution of the test compound in DMSO was pipetted into a black low volume 384 well microtiter plate (Greiner Bio-One, Frickenhausen, Germany), 2 μL of a solution of MKNK1 in aqueous assay buffer [50 mM HEPES pH 7.5, 5 mM MgCl2, 1.0 mM dithiothreitol, 0.005% (v/v) Nonidet-P40 (Sigma)] was added and the mixture was incubated for 15 min at 22° C. to allow pre-binding of the test compounds to the enzyme before the start of the kinase reaction. Then the kinase reaction was started by the addition of 3 μL of a solution of adenosine-tri-phosphate (ATP, 3.3 mM=>final conc. in the 5 μL assay volume is 2 mM) and substrate (0.1 μM=>final conc. in the 5 μL assay volume is 0.06 μM) in assay buffer and the resulting mixture was incubated for a reaction time of 30 min at 22° C. The concentration of MKNK1 was adjusted depending of the activity of the enzyme lot and was chosen appropriate to have the assay in the linear range, typical concentrations were in the range of 0.003 μg/mL. The reaction was stopped by the addition of 5 μL of a solution of TR-FRET detection reagents (5 nM streptavidine-XL665 [Cisbio Bioassays, Codolet, France] and 1 nM anti-ribosomal protein […] (pSer236)-antibody from Invitrogen [#44921G] and 1 nM LANCE EU-W1024 labeled ProteinG [Perkin-Elmer, product no. AD0071]) in an aqueous EDTA-solution (100 mM EDTA, 0.1% (w/v) bovine serum albumin in 50 mM HEPES pH 7.5).
The resulting mixture was incubated for 1 h at 22° C. to allow the formation of complex between the phosphorylated biotinylated peptide and the detection reagents. Subsequently the amount of phosphorylated substrate was evaluated by measurement of the resonance energy transfer from the Eu-chelate to the streptavidine-XL. Therefore, the fluorescence emissions at 620 nm and 665 nm after excitation at 350 nm were measured in a TR-FRET reader, e.g. a Rubystar (BMG Labtechnologies, Offenburg, Germany) or a Viewlux (Perkin-Elmer). The ratio of the emissions at 665 nm and at […] was taken as the measure for the amount of phosphorylated substrate. The data were normalised (enzyme reaction without inhibitor=0% inhibition, all other assay components but no enzyme=100% inhibition). […] Table 1a lists MKNK1 high ATP IC50 values of some compounds of the present invention.
On the technique in general: Time-resolved FRET reads energy transfer from a long-lived donor to a nearby acceptor.
One may read the IC50 as the concentration that gives 50% inhibition. Lower therefore signals greater potency. Consider `COc1cc2[nH]ncc2cc1Nc1ncnc2sc3c(c12)CC[C@@](C)(C(=O)N(C)C)C3` [Example 49, (7R) 4-[(6-Methoxy-1H-indazol-5-yl)amino]-N,N,7-trimethyl-5,6,7,8-tetrahydro[1]benzothieno[2,3-d]pyrimidine-7-carboxamide], for which inhibition was half-maximal at 13.3 nM (IC50). In the case of `CC[C@@]1(C(=O)N(C)C)CCc2c(sc3ncnc(Nc4cc5cn[nH]c5cc4OC)c23)C1` [Example 50, (7R) 7-Ethyl-4-[(6-methoxy-1H-indazol-5-yl)amino]-N,N-dimethyl-5,6,7,8-tetrahydro[1]benzothieno[2,3-d]pyrimidine-7-carboxamide] it was 19.6 nM. Under `CC[C@]1(C(=O)N(C)C)CCc2c(sc3ncnc(Nc4cc5cn[nH]c5cc4OC)c23)C1` [Example 51, (7S) 7-Ethyl-4-[(6-methoxy-1H-indazol-5-yl)amino]-N,N-dimethyl-5,6,7,8-tetrahydro[1]benzothieno[2,3-d]pyrimidine-7-carboxamide] stands 1.7 nM. Under `COc1cc2[nH]ncc2cc1Nc1ncnc2sc3c(c12)CC[C@](C)(C(=O)N1CCOCC1)C3` [Example 52, (7S) {4-[(6-Methoxy-1H-indazol-5-yl)amino]-7-methyl-5,6,7,8-tetrahydro[1]benzothieno[2,3-d]pyrimidin-7-yl}(morpholin-4-yl)methanone] stands 2 nM; under `COc1cc2[nH]ncc2cc1Nc1ncnc2sc3c(c12)CC[C@@](C)(C(=O)N1CCOCC1)C3` [Example 53, (7R) {4-[(6-Methoxy-1H-indazol-5-yl)amino]-7-methyl-5,6,7,8-tetrahydro[1]benzothieno[2,3-d]pyrimidin-7-yl}(morpholin-4-yl)methanone], 18.9 nM; under `COc1cc2[nH]ncc2cc1Nc1ncnc2sc3c(c12)CC[C@](C)(C(=O)N1CCOC[C@H]1C)C3` [Example 54, (7S) {4-[(6-Methoxy-1H-indazol-5-yl)amino]-7-methyl-5,6,7,8-tetrahydro[1]benzothieno[2,3-d]pyrimidin-7-yl}[(3R)-3-methylmorpholin-4-yl]methanone], 4.3 nM. `COc1cc2[nH]ncc2cc1Nc1ncnc2sc3c(c12)CC[C@@](C)(C(=O)N1CCOC[C@H]1C)C3` [Example 55, (7R) {4-[(6-Methoxy-1H-indazol-5-yl)amino]-7-methyl-5,6,7,8-tetrahydro[1]benzothieno[2,3-d]pyrimidin-7-yl}[(3R)-3-methylmorpholin-4-yl]methanone]: the IC50 was determined as 33.3 nM. Under `COCCN(C)C(=O)[C@@]1(C)CCc2c(sc3ncnc(Nc4cc5cn[nH]c5cc4OC)c23)C1` [Example 56, (7S) N-(2-Methoxyethyl)-4-[(6-methoxy-1H-indazol-5-yl)amino]-N,7-dimethyl-5,6,7,8-tetrahydro[1]benzothieno[2,3-d]pyrimidine-7-carboxamide] stands 4.5 nM. The compound `COCCN(C)C(=O)[C@]1(C)CCc2c(sc3ncnc(Nc4cc5cn[nH]c5cc4OC)c23)C1` [Example 57, (7R) N-(2-Methoxyethyl)-4-[(6-methoxy-1H-indazol-5-yl)amino]-N,7-dimethyl-5,6,7,8-tetrahydro[1]benzothieno[2,3-d]pyrimidine-7-carboxamide] gave an IC50 of 21.4 nM. In the case of `COc1cc2[nH]ncc2cc1Nc1ncnc2sc3c(c12)CC[C@](C)(C(=O)N(C)OC)C3` [Example 58, (7S) N-Methoxy-4-[(6-methoxy-1H-indazol-5-yl)amino]-N,7-dimethyl-5,6,7,8-tetrahydro[1]benzothieno[2,3-d]pyrimidine-7-carboxamide] it was 2.5 nM.

As for `COc1cc2[nH]ncc2cc1Nc1ncnc2sc3c(c12)CC[C@@](C)(C(=O)N(C)OC)C3` [Example 59, (7R) N-Methoxy-4-[(6-methoxy-1H-indazol-5-yl)amino]-N,7-dimethyl-5,6,7,8-tetrahydro[1]benzothieno[2,3-d]pyrimidine-7-carboxamide], the IC50 stood at 12.9 nM. For the compound `COc1cc2[nH]ncc2cc1Nc1ncnc2sc3c(c12)CC[C@](C)(C(=O)N1CCC1)C3` [Example 60, (7S) Azetidin-1-yl{(7S)-4-[(6-methoxy-1H-indazol-5-yl)amino]-7-methyl-5,6,7,8-tetrahydro[1]benzothieno[2,3-d]pyrimidin-7-yl}methanone], 3.7 nM corresponded to half-maximal inhibition (IC50). Under `COc1cc2[nH]ncc2cc1Nc1ncnc2sc3c(c12)CC[C@@](C)(C(=O)N1CCC1)C3` [Example 61, (7R) Azetidin-1-yl{(7S)-4-[(6-methoxy-1H-indazol-5-yl)amino]-7-methyl-5,6,7,8-tetrahydro[1]benzothieno[2,3-d]pyrimidin-7-yl}methanone] stands 11.7 nM. Compound `CC[C@@]1(C(=O)N2CCOCC2)CCc2c(sc3ncnc(Nc4cc5cn[nH]c5cc4OC)c23)C1` [Example 62, (7R) {7-Ethyl-4-[(6-methoxy-1H-indazol-5-yl)amino]-5,6,7,8-tetrahydro[1]benzothieno[2,3-d]pyrimidin-7-yl}(morpholin-4-yl)methanone] returned an IC50 of 31.7 nM. Turning to `CC[C@]1(C(=O)N2CCOCC2)CCc2c(sc3ncnc(Nc4cc5cn[nH]c5cc4OC)c23)C1` [Example 63, (7S) {7-Ethyl-4-[(6-methoxy-1H-indazol-5-yl)amino]-5,6,7,8-tetrahydro[1]benzothieno[2,3-d]pyrimidin-7-yl}(morpholin-4-yl)methanone], the half-maximal inhibitory concentration (IC50) is 1.8 nM.

On to `CC[C@@]1(C(=O)N(C)CCOC)CCc2c(sc3ncnc(Nc4cc5cn[nH]c5cc4OC)c23)C1` [Example 64, (7R) 7-Ethyl-N-(2-methoxyethyl)-4-[(6-methoxy-1H-indazol-5-yl)amino]-N-methyl-5,6,7,8-tetrahydro[1]benzothieno[2,3-d]pyrimidine-7-carboxamide], for which the IC50 is 26.3 nM.

`CC[C@]1(C(=O)N(C)CCOC)CCc2c(sc3ncnc(Nc4cc5cn[nH]c5cc4OC)c23)C1` [Example 65, (7S) 7-Ethyl-N-(2-methoxyethyl)-4-[(6-methoxy-1H-indazol-5-yl)amino]-N-methyl-5,6,7,8-tetrahydro[1]benzothieno[2,3-d]pyrimidine-7-carboxamide] gave an IC50 of 3 nM. Under `CC[C@@]1(C(=O)N(C)OC)CCc2c(sc3ncnc(Nc4cc5cn[nH]c5cc4OC)c23)C1` [Example 66, (7R) 7-Ethyl-N-methoxy-4-[(6-methoxy-1H-indazol-5-yl)amino]-N-methyl-5,6,7,8-tetrahydro[1]benzothieno[2,3-d]pyrimidine-7-carboxamide] stands 20.4 nM; under `CC[C@]1(C(=O)N(C)OC)CCc2c(sc3ncnc(Nc4cc5cn[nH]c5cc4OC)c23)C1` [Example 67, (7S) 7-Ethyl-N-methoxy-4-[(6-methoxy-1H-indazol-5-yl)amino]-N-methyl-5,6,7,8-tetrahydro[1]benzothieno[2,3-d]pyrimidine-7-carboxamide], 1.8 nM; under `CC[C@@]1(C(=O)N2CCC2)CCc2c(sc3ncnc(Nc4cc5cn[nH]c5cc4OC)c23)C1` [Example 68, (7R) Azetidin-1-yl{(7S)-7-ethyl-4-[(6-methoxy-1H-indazol-5-yl)amino]-5,6,7,8-tetrahydro[1]benzothieno[2,3-d]pyrimidin-7-yl}methanone], 24.6 nM. Under `CC[C@]1(C(=O)N2CCC2)CCc2c(sc3ncnc(Nc4cc5cn[nH]c5cc4OC)c23)C1` [Example 69, (7S) Azetidin-1-yl{(7S)-7-ethyl-4-[(6-methoxy-1H-indazol-5-yl)amino]-5,6,7,8-tetrahydro[1]benzothieno[2,3-d]pyrimidin-7-yl}methanone] stands 3.4 nM.
